According to US4317821A, “Maytansinoids, their use and pharmaceutical compositions thereof” (Takeda Chemical Industries, Ltd., priority 1979, dated 1982):
In brackets after ≈: the same amount, converted by molar mass.

Legend:
[1] = tested on: melanoma B-16 tumor cells; experiment: Antitumor activity: life span prolongation in mice intraperitoneally transplanted with melanoma B-16 (NCI-protocol 1,300); format: in vivo; conditions: intraperitoneally once daily for 9 consecutive days
Description: Therapeutic tests were carried out in mice according to NCI-protocol 1,300, Cancer Chemother, Reports, Part 3, 1972, Vol. 3, No. 2, in which melanoma B-16 tumor cells had been intraperitoneally transplanted, compound (I) being administered intraperitoneally once daily for 9 consecutive days.

Tetrahymena pyriformis W = experiment: Antiprotozoal activity: growth inhibition by serial dilution method; format: cell-based; conditions: 28° C., 44 to 48 hours, pH 7.0 medium
Description: Antiprotozoal activity of compound (I) was assayed with Tetrahymena pyriformis W as the test organism and a medium composed of 20 g tryptose-peptone (Difco Co.), 1 g yeast extract, 2 g glucose, 1000 ml distilled water, 10 ml 1 M phosphate buffer (pH 7.0) as the assay medium. The microorganism was incubated at 28° C. for 44 to 48 hours and the growth inhibitory activity of compound (I) was assayed by the serial dilution method.

| SMILES | Antitumor activities B-16 (T/C %) ([1]; dose 100 μg/kg) | Antitumor activities B-16 (T/C %) ([1]; dose 200 μg/kg) | Antitumor activities B-16 (T/C %) ([1]; dose 400 μg/kg) | Antitumor activities B-16 (T/C %) ([1]; dose 800 μg/kg) | Antitumor activities B-16 (T/C %) ([1]; dose 3.125 μg/kg) | Antitumor activities B-16 (T/C %) ([1]; dose 6.25 μg/kg) | Antitumor activities B-16 (T/C %) ([1]; dose 12.5 μg/kg) | MIC (Tetrahymena pyriformis W) |
| --- | --- | --- | --- | --- | --- | --- | --- | --- |
| COc1cc2cc(c1Cl)N(C)C(=O)CC(OC(=O)C(O)c1ccccc1)C1(C)OC1C(C)C1CC(O)(NC(=O)O1)C(OC)C=CC=C(C)C2 (single isomer, unassigned) [maytansinol 3-α-hydroxyphenylacetate] | 178% | 208% | 247% | 217% | – | – | – | – |
| COc1cc2cc(c1Cl)N(C)C(=O)CC(OC(=O)C(OC(C)=O)c1ccccc1)C1(C)OC1C(C)C1CC(O)(NC(=O)O1)C(OC)C=CC=C(C)C2 (stereo not drawn) [Maytansinol 3-α-acetoxyphenylacetate, maytansinol 3-(α-acetoxyphenyl)acetate] | – | – | – | – | 181% | 260% | 161% | < 2 µg/mL |
| COc1cc2cc(c1Cl)N(C)C(=O)CC(OC(=O)C(COC(C)=O)c1ccccc1)C1(C)OC1C(C)C1CC(O)(NC(=O)O1)C(OC)C=CC=C(C)C2 (stereo not drawn) [maytansinol 3-α-acetoxymethylphenylacetate] | – | – | – | – | – | – | – | 1 to 2 µg/mL (≈ 1.32 to 2.65 µM) |
